Assay results as given in patent US5734081A, “Arylthio compounds” (Warner-Lambert Company, priority 1995, dated 1998).

Assays:
[1] = molecular target: T1, HIV-1 Nucleocapsid Protein (NCp7) (Human immunodeficiency virus type 1 group M subtype B, UniProt P12493); assay: Zinc extrusion assay (TSQ fluorescence) from the zinc fingers of HIV-1 nucleocapsid protein (NCp7); format: biochemical
T1 construct: The NCp7 protein containing 2 Zn-fingers and 2 Zn ions is incubated with drug
From the text: The compounds of the present invention cause the extrusion of zinc from the nucleocapsid protein (NCp7) of HIV-1. The NC protein is highly conserved among all retroviruses (South T., Blake P., et al., Biochemistry, 1990;29:7786) and is essential for viral infectivity (Aldovini A. and Young R., J. Virology, 1990;64:1920 and Gorelick R., Nigida S., et al., J. Virology, 1990;64:3207). The zinc is normally held in NC proteins by 1 or 2 zinc fingers. In the case of HIV-1, 2 zinc fingers are present (Summers M., South T., et al., Biochemistry, 1990;29:329) and are involved specifically with the PSI site on viral RNA which controls the packaging of viral RNA. Interference of this packaging causes the formation of non-infectious virions (Dannull J., Surovoy A., et al., EMBO, 1994;13:1525). It has previously been shown that compounds that cause zinc extrusion have potent anti-HIV activity in multiple cell lines and against all retroviruses (Rice W., Schaeffer C., et al., Nature, 1993;361:473).
A fluorescence-based assay has been developed to monitor the ejection of zinc from purified HIV-1 NCp7. The fluorophore, N-(6-methoxy-8-quinolyl)-p-toluenesulfonamide (TSQ), has an increased fluorescent signal upon bonding zinc ion in solution. The NCp7 protein containing 2 Zn-fingers and 2 Zn ions is incubated with drug causing the extrusion of Zn ions. The released Zn is then sequestered by the TSQ and the increased fluorescence monitored relative to control. […] Fluorescence (excitation 355 nm emission 400 nm) was monitored versus time. Controls were the NCp7 under assay conditions without drug, and apo NCp7 (no Zn) with drug. The % Zn extrusion was calculated based on the actual fluorescence measured divided by the fluorescence of all theoretical Zn extruded (5.6 μM)×100.
Table 1 below presents data for several invention compounds evaluated in the zinc extrusion assay described above.

[2] = CEM cell growth inhibition (XTT, noninfected cells); format: cell-based; details: human, CEM Cell Assay, drug alone, read-out: IC50 (Inhibitory Concentration where drug alone inhibits cell growth)
Description: (§1) Yet another test system employed to determine antiviral activity is called the CEM cell assay.
(§2) T4 lymphocytes (CEM cell line) are exposed to HIV at a virus to cell ratio approximately 0.05, and plated along with noninfected control cells in 96-well microliter plates.
(§3) The candidate agent is dissolved in dimethyl sulfoxide (unless otherwise noted), then diluted 1:200 in cell culture medium. Further dilutions (half-log10) are prepared before adding to an equal volume of medium containing either infected or noninfected cells. Cultures are incubated at 37° in a 5% carbon dioxide atmosphere for 6 or 7 days. The tetrazolium salt, XTT, is added to all wells, and cultures are incubated to allow formazan color development by viable cells (J. National Cancer Institute, 1989;81:577-586). Individual wells are analyzed spectrophotometrically to quantitate formazan production, and in addition are viewed microscopically for detection of viable cells confirmation of protective activity.
(§4) Drug-tested virus-infected cells are compared with drug-treated noninfected cells and with other appropriate controls (untreated infected and untreated noninfected cells, drug-contain wells without cells, etc.) on the same plate. Data are reviewed in comparison with other tests done at the same time and a determination about activity is made.

HIV-1 = assay: CEM cell assay, anti-HIV-1 activity; format: cell-based; details: Human immunodeficiency virus 1, CCRF-CEM, HIV-1, 6 or 7 days, read-out: EC50 (Effective Concentration which protects cells from viral cytopathic effects)
From the text: The test systems utilized to establish the antiviral activity of the arylthio compounds of this invention are well recognized in the art and are routinely employed for such purpose. For example, the assay utilized to evaluate the compounds activity against the HIV virus is that employed by the U.S. National Cancer Institute as described by Weislow O. S., et al., J. Natl. Cancer Inst., 1989;81:577-586, incorporated herein by reference.
The procedure is designed to detect agents acting at any stage of the virus reproductive cycle. The assay basically involves the killing of T4 lymphocytes by HIV. Small amounts of HIV are added to cells, and at least two complete cycles of virus reproduction are necessary to obtain the required cell killing. Agents which interact with virions, cells, or virus gene-products to interfere with viral activities will protect cells from cytolysis. The system is automated in several features to accommodate large numbers of candidate agents, and is generally designed to detect anti-HIV activity. However, compounds which degenerate or are rapidly metabolized in the culture conditions may not show activity in this screen.
as §1, §2, §3, §4

[3] = 10 μM compound, 2.8 μM NCp7, pH 7.4, 26° C., 90 minutes

Row | Compound | % Zinc Extrusion Relative to Control ([1]; EDTA, 24 hours) | % Zinc Extrusion Relative to Control [1, 3] | CC50 [2] | EC50 (HIV-1)
1 | O=C(O)CN(CCN(CC(=O)O)CC(=O)O)CC(=O)O [EDTA, reference compound] | 10% |  |  | 
2 | CC(C)NS(=O)(=O)c1ccc(NC(=O)c2ccccc2SSc2ccccc2C(=O)Nc2ccc(S(=O)(=O)NC(C)C)cc2)cc1 [Example 3, 2,2'-Dithiobis-N-[4[[(1-methylethyl)amino]sulfonyl]phenyl]benzamide] |  | 73% |  | 
3 | NS(=O)(=O)c1ccc(NC(=O)c2ccc(F)cc2SSc2cc(F)ccc2C(=O)Nc2ccc(S(N)(=O)=O)cc2)cc1 [Example 16, 2,2'-Dithiobis[N-[4-(aminosulfonyl)phenyl]-4-fluorobenzamide]] |  |  | 66 µM | 2.5 µM
4 | COc1cccc(C(=O)Nc2ccc(S(N)(=O)=O)cc2)c1SSc1c(OC)cccc1C(=O)Nc1ccc(S(N)(=O)=O)cc1 [Example 18, 2,2'-Dithiobis[N-[4-(aminosulfonyl)phenyl]-3-methoxybenzamide]] |  | 67% |  | 
5 | COc1ccc(C(=O)Nc2ccc(S(N)(=O)=O)cc2)c(SSc2cc(OC)ccc2C(=O)Nc2ccc(S(N)(=O)=O)cc2)c1 [Example 19, 2,2'-Dithiobis[N-[4-(aminosulfonyl)phenyl]-4-methoxybenzamide]] |  |  | > 100 µM | 2.4 µM
6 | Cc1ccc(SSc2ccc(C)cc2C(=O)Nc2ccc(S(N)(=O)=O)cc2)c(C(=O)Nc2ccc(S(N)(=O)=O)cc2)c1 [Example 23, 2,2'-Dithiobis[N-[4-(aminosulfonyl)phenyl]-5-methylbenzamide]] |  |  | > 100 µM | 4.3 µM
7 | NS(=O)(=O)c1ccc(NC(=O)c2cccnc2SSc2ncccc2C(=O)Nc2ccc(S(N)(=O)=O)cc2)cc1 [Example 25, 2,2'-Dithiobis[N-[4-(aminosulfonyl)phenyl]-3-pyridinecarboxamide]] |  | 73% |  | 
8 | CC(C)(C)[C@H](NC(=O)c1ccccc1SSc1ccccc1C(=O)N[C@H](C(=O)O)C(C)(C)C)C(=O)O [Example 48, L,L-2-{2-[2-(1-Carboxy-2,2-dimethyl-propylcarbamoyl)-phenyldisulfanyl]-benzoylamino}-3,3-dimethyl-butyric acid] |  |  | > 100 µM | 18 µM
9 | CC(C)C[C@H](NC(=O)c1ccc(F)cc1SSc1cc(F)ccc1C(=O)N[C@@H](CC(C)C)C(=O)O)C(=O)O [Example 51, [S-(R*,R*)]2-{2-[2-(1-Carboxy-3-methyl-butylcarbamoyl)-5-fluoro-phenyldisulfanyl]-4-fluorobenzoylamino}-4-methyl-pentanoic acid] |  |  | 64 µM | 8.4 µM
10 | COc1ccc(C(=O)N[C@@H](CC(C)C)C(=O)O)c(SSc2cc(OC)ccc2C(=O)N[C@@H](CC(C)C)C(=O)O)c1 [Example 54, [S-(R*,R*)]2-{2-[2-(1-Carboxy-3-methyl-butyl]carbamoyl)-5-methoxy-phenyldisulfanyl]-4-methoxybenzoylamino}-4-methyl-pentanoic acid] |  |  | 75 µM | 6.9 µM
11 | Cc1cccc(C(=O)N[C@@H](CC(C)C)C(=O)O)c1SSc1c(C)cccc1C(=O)N[C@@H](CC(C)C)C(=O)O [Example 56, [S-(R*,R*)]2-{2-[2-(1-Carboxy-3-methyl-butylcarbamoyl)-6-methyl-phenyldisulfanyl]-3-methyl-benzoylamino}-4-methyl-pentanoic acid] |  | 73% |  | 
12 | Cc1ccc(C(=O)N[C@@H](CC(C)C)C(=O)O)c(SSc2cc(C)ccc2C(=O)N[C@@H](CC(C)C)C(=O)O)c1 [Example 57, [S-(R*,R*)]2-{2-[2-(1-Carboxy-3-methyl-butylcarbamoyl)-5-methyl-phenyldisulfanyl]-4-methylbenzoylamino}-4-methyl-pentanoic acid] |  |  | 71 µM | 6 µM
13 | CC(=O)Nc1ccc(SSc2ccc(NC(C)=O)cc2C(=O)N[C@@H](CC(C)C)C(=O)O)c(C(=O)N[C@@H](CC(C)C)C(=O)O)c1 [Example 60, [S-(R*,R*)]2-{5-Acetylamino-2-[4-acetylamino-2-(1-carboxy-3-methyl-butylcarbamoyl)-phenyldisulfanyl]-benzoylamino}-4-methyl-pentanoic acid] |  | 65% |  | 
14 | O=C(O)C[C@H](NC(=O)c1ccccc1SSc1ccccc1C(=O)N[C@@H](CC(=O)O)C(=O)O)C(=O)O [Example 62, L,L-2-{2-[2-(1,2-Dicarboxy-ethylcarbamoyl)-phenyldisulfanyl]-benzoylamino}-succinic acid] |  | 73% |  | 
15 | COc1ccc(SSc2ccc(OC)cc2C(N)=O)c(C(N)=O)c1 [Example 70, 2,2'-Dithiobis[5-methoxy-benzamide]] |  | 74% |  | 
16 | CC(C)(C)C(=O)Nc1ccc(SSc2ccc(NC(=O)C(C)(C)C)cc2C(N)=O)c(C(N)=O)c1 [Example 73, 2,2'-Dithiobis[5-[(2,2-dimethyl-1-oxopropyl)amino]benzamide]] |  |  | 70 µM | 5 µM
17 | O=C(Nc1ccc(Cl)cc1Cl)c1ccccc1SSc1ccccc1C(=O)Nc1ccc(Cl)cc1Cl [Example 84, 2,2'-Dithiobis[N-(2,4-dichlorophenyl)benzamide]] |  | 50% |  | 
18 | CS(=O)(=O)c1ccc(NC(=O)c2ccccc2SSc2ccccc2C(=O)Nc2ccc(S(C)(=O)=O)cc2)cc1 [Example 94, 2,2'-Dithiobis[N-[4-(methylsulfonyl)phenyl]benzamide]] |  | 62% |  | 
19 | NS(=O)(=O)c1ccccc1NC(=O)c1ccccc1SSc1ccccc1C(=O)Nc1ccccc1S(N)(=O)=O [Example 102, 2,2'-Dithiobis[N-[2-(aminosulfonyl)phenyl]benzamide]] |  |  | 68 µM | 1.7 µM
20 | O=C(O)c1ccc(NC(=O)c2ccccc2SSc2ccccc2C(=O)Nc2ccc(C(=O)O)cc2)cc1 [Example 106, 4,4'-[dithiobis(2,1-phenylenecarbonylimino)bisbenzoic acid]] |  |  | 22 µM | 1.8 µM
21 | O=C(O)Cc1ccc(NC(=O)c2ccccc2SSc2ccccc2C(=O)Nc2ccc(CC(=O)O)cc2)cc1 [Example 108, (4-{2-[2-(4-Carboxymethyl-phenylcarbamoyl)-phenyldisulfanyl]-benzoylamino}-phenyl)-acetic acid] |  |  | 61 µM | 5.9 µM
22 | O=C(c1ccccc1SSc1ccccc1C(=O)N1CCSCC1)N1CCSCC1 [Example 113, {2-[2-(Thiomorpholine-4-carbonyl)-phenyldisulfanyl]phenyl}-thiomorpholin-4-yl-methanone] |  | 67% |  | 
23 | COC(=O)c1ccccc1SSc1ccccc1C(=O)Nc1ccc(S(N)(=O)=O)cc1 [Example 137, 2-[2-(4-Sulfamoylphenylcarbamoyl)phenyldisulfanyl]benzoic acid, methyl ester] |  |  | 65 µM | 8.6 µM
24 | NS(=O)(=O)c1ccc(NS(=O)(=O)c2ccccc2SSc2ccccc2S(=O)(=O)Nc2ccc(S(N)(=O)=O)cc2)cc1 [Example 145] |  | 65% |  | 
25 | O=C(c1ccccc1)c1ccccc1SSc1ccccc1C(=NO)c1ccccc1 [Example 150, {2-[2-(hydroxyimino-phenyl-methyl)-phenyldisulfanyl]phenyl}-phenyl-methanon] |  | 36% |  | 
